The subject of one assay is Plasmopara viticola. As to the kind of experiment: Fungicidal (preventive) activity against Peronospora of vines, leaf spray. In kind it is in vivo, Plasmopara viticola on vine (cultivar Dolcetto). The note with it: for Activity 125 ppm / Activity 250 ppm: 7-day preventive activity; for Activity 125 ppm: scale 0 to 100 (healthy plant); for Activity 250 ppm: scale 0 (completely infected plant) to 100 (healthy plant); for Activity (dose ppm): 7-day preventive, scale 0-100. The method, then: Determination of the Fungicidal Activity Against Peronospora of Vines (Plasmopara viticola) […] After remaining 24 hours in a conditioned environment, the plants were sprayed on both sides of the leaves with an aqueous suspension of conidia of Plasmopara viticola (20,000 conidia per cm^3). The plants are kept in a humidity saturated environment at 21° C. for the incubation period of the fungus.

Another assay relates to Puccinia recondita. As to the kind of experiment: Fungicidal (preventive) activity against wheat rust, leaf spray. In kind it is in vivo, Puccinia recondita on wheat (cultivar Gemini). The note with it: 5-day preventive, scale 0-100. The method, then: Determination of the Fungicidal Activity Against Wheat Rust (Puccinia recondita)
(§1) Leaves of wheat plants (cultivar Gemini), grown in vases in a conditioned environment (20±1° C., 70% relative humidity) are treated by spraying both sides of the leaves with compounds 1, 2 and 3, dispersed in a hydroacetone solution at 20% by volume in acetone. […]
(§2) The plants are kept in a humidity saturated environment at a temperature ranging from 18 to 24° C. for the incubation period of the fungus.
At the end of this period (14 days), the fungicidal activity is evaluated according to an evaluation percentage scale from 0 (completely infected plant) to 100 (healthy plant).

The next assay has as its system Erysiphe graminis. Description: Fungicidal (preventive) activity against oidium of wheat, leaf spray. Format: in vivo, Erysiphe graminis on wheat (cultivar Gemini). The note with it: 5-day preventive, scale 0-100. As for the experimental part:
Determination of the Fungicidal Activity Against Oidium of Wheat (Erysiphe graminis)
as §1, §2
At the end of this period (12 days), the fungicidal activity is evaluated according to an evaluation percentage scale from 0 (completely infected plant) to 100 (healthy plant).

The next assay relates to PR1. Description: Gene response (PR1 expression, quantitative PCR) in treated seedlings. Format: in vivo, arabidopsis thaliana. The note with it: 800 ppm and 1600 ppm; leaves collected after 24 hours of treatment; compared with blank and glycine betaine (FIG. 1). The method, then: Determination of the Gene Response of the Compounds Having General Formula (I) and their Mixtures with Other Fungicides
Four-week-old seedlings of arabidopsis thaliana were treated with the compounds having general formula (I) or their mixtures with other fungicides and the leaves were collected after 24 hours of treatment.
The total RNA was extracted from 0.05 g of fresh tissue using the “Genelute mammalian total RNA kit (Sigma)” according to the protocol indications. The cDNA were synthesized using “RevertAid™ M-MuLV Reverse Transcriptase” commercialized by Fermentas Life Sciences according to the following protocol: 2 μg of total RNA were mixed with 0.5 μg of oligo(dT) 18.
Deionized water (nuclease free) was then added to bring the reaction volume to 11 μl, the reaction was subsequently incubated at 70° C. for 5 minutes and then cooled in ice.
The following reagents were then added to the mixture:
4 μl of 5× reaction buffer, 10 mM of dNTP mix, 20 units of Ribonuclease inhibitor.
The reaction was incubated at 37° C. for 5 minutes, 200 units of RevertAid™ M-MuLV Reverse Transcriptase were subsequently added to the mixture and the reaction was incubated at 42° C. for 60 minutes. […]
A quantitative PCR analysis was effected on the cDNA using a mixture of primer/competimers of the ribosomal RNA 18S as internal standard in a ratio of 9:1. […]

For `CCCCCCCCCCCC(=O)NCCC[N+](C)(C)C(CC(=O)[O-])c1ccccc1` (stereo not drawn) [Compound 28, laurylamidopropyl- β-phenylalaninebetaine], in the assay on Plasmopara viticola, the “Activity 125 ppm” value amounted to 90 and the “Activity 250 ppm” value worked out at 99.

Turning to `CCCCCCCCCCCC(=O)NCCC[N+](C)(C)CC(=O)[O-]` [Compound 7, Laurylamidopropylbetaine], in the assay with Plasmopara viticola, the “Activity 125 ppm” value is on record as 95 and the “Activity 250 ppm” value is 100.

On to “Cholesterylcarbonylamidopropylbetaine [Compound 10]”, for which, in the assay with Plasmopara viticola, the “Activity 125 ppm” value is 90 and the “Activity 250 ppm” value turned out to be 95.

With “Cocamidopropyl[L]phenylglycinebetaine [Compound 34]”, in the assay with Plasmopara viticola, the “Activity 125 ppm” value was 88 and the “Activity 250 ppm” value is listed as 97.

With “cocamidopropyl[L]alaninebetaine [Compound 33]”, in the assay on Plasmopara viticola, the “Activity 125 ppm” value was 85 and the “Activity 250 ppm” value amounted to 96.

Regarding `CCCCCCCCCCCC[N+](C)(C)CC(O)CS(=O)(=O)[O-]` (centres unmarked) [Compound 5, Laurylhydroxysultaine], in the assay with Plasmopara viticola, the “Activity 125 ppm” value amounted to 85 and the “Activity 250 ppm” value is 99.

As to `CCCCCCCCCCCC(=O)NCCC[N+]1(C)CCCC1C(=O)[O-]` (centres unmarked) [Compound 25, laurylamidopropyl[L]prolinebetaine], in the assay on Plasmopara viticola, the “Activity 125 ppm” value came to 95 and the “Activity 250 ppm” value turned out to be 100.

As to `C[N+](C)(C)CC(=O)[O-]` [Glycine betaine, reference compound], the “Activity (dose ppm)” value with Plasmopara viticola (30 ppm) amounted to 30.

Regarding “Cholanylamidopropylbetaine [Compound 11]”, in the assay with Plasmopara viticola, the “Activity 125 ppm” value came to 90 and the “Activity 250 ppm” value turned out to be 94.

Consider “Cocamidopropyl- β-alaninebetaine [Compound 37]”, for which, in the assay on Plasmopara viticola, the “Activity 125 ppm” value is reported as 86 and the “Activity 250 ppm” value is 98.

On to `CCCCCCCCCCCC(=O)NCCC[N+](C)(C)CCC(=O)[O-]` [Compound 30, laurylamidopropyl- β-alaninebetaine], for which, in the assay with Plasmopara viticola, the “Activity 125 ppm” value is listed as 85 and the “Activity 250 ppm” value is on record as 90.

For the molecule `FC(F)C(F)(F)OCC(Cn1cncn1)c1ccc(Cl)cc1Cl` (centres unmarked) [Tetraconazole, tetraconazole], the figures for the “Activity (dose ppm)” value in the assay with Puccinia recondita (30 ppm), in the assay with Erysiphe graminis (1.8 ppm) and in the assay with Plasmopara viticola (30 ppm) were 58, 48 and 20, respectively.

“Cocamidopropylhydroxysultaine [Compound 9]”: in the assay with Plasmopara viticola, the “Activity 125 ppm” value is recorded as 95 and the “Activity 250 ppm” value was 100.

As for “Cocamidopropyl[L]valinebetaine [Compound 31]”, in the assay with Plasmopara viticola, the “Activity 125 ppm” value turned out to be 85 and the “Activity 250 ppm” value is on record as 98.

With “Cocamidopropyl-β-phenylalaninebetaine [Compound 35]”, in the assay on Plasmopara viticola, the “Activity 125 ppm” value is 89 and the “Activity 250 ppm” value turned out to be 95.

Consider `CCCCCCCCCCCC(=O)NCCC[N+](C)(C)C(CC(=O)[O-])c1ccc(Cl)cc1` (stereo not drawn) [Compound 29, laurylamidopropyl-β-4-chlorophenylalaninebetaine], for which, in the assay with Plasmopara viticola, the “Activity 125 ppm” value is listed as 90 and the “Activity 250 ppm” value was 95.

Consider `COC(=O)CC(NC(=O)[C@@H](NC(=O)OC(C)C)C(C)C)c1ccc(Cl)cc1` (some centres unmarked) [IR5885, reference compound], for which the “Activity (dose ppm)” value in the assay on Puccinia recondita (500 ppm) is on record as 15; in the assay on Erysiphe graminis (500 ppm), 20; in the assay with Plasmopara viticola (0.22 ppm), 15; in the assay with Plasmopara viticola (0.45 ppm), 41.

With “Cocamidopropyl- β-4-chlorophenylalaninebetaine [Compound 36]”, in the assay on Plasmopara viticola, the “Activity 125 ppm” value is listed as 85 and the “Activity 250 ppm” value worked out at 94.

Take `CCCCCCCCCCCC(=O)NCCC[N+](C)(C)C(C)C(=O)[O-]` (centres unmarked) [Compound 26, laurylamidopropyl[L]alaninebetaine]: in the assay on Plasmopara viticola, the “Activity 125 ppm” value came out at 90 and the “Activity 250 ppm” value stood at 95.

`CCCCCCCCCCCC(=O)NCCC[N+](C)(C)C(C(=O)[O-])C(C)C` (centres unmarked) [Compound 24, laurylamidopropyl[L]valinebetaine]: in the assay with Plasmopara viticola, the “Activity 125 ppm” value stood at 88 and the “Activity 250 ppm” value is recorded as 99.

For the molecule “Cocamidopropyl[L]prolinebetaine [Compound 32]”, in the assay on Plasmopara viticola, the “Activity 125 ppm” value worked out at 88 and the “Activity 250 ppm” value worked out at 95.

As for Cocamidopropylbetaine [Compound 8], the “Activity (dose ppm)” value with Puccinia recondita (125 ppm) is 29 (125 ppm); in the assay on Erysiphe graminis (500 ppm), 20 (500 ppm); in the assay with Plasmopara viticola (30 ppm), 30. The gene response entry in the assay with PR1 is given as “exceptional gene response”. Further, in the assay with Plasmopara viticola, the “Activity 125 ppm” value is 98. Besides, in the assay with Plasmopara viticola, the “Activity 250 ppm” value was 100.

Source of the values: patent US20090105238A1, “Compounds and Relative use for the Control of Phytopathogens” (ISAGRO RICERCA S.r.l, priority 2005, published 2009).
